Experimental findings from ChEMBL document CHEMBL1154920, “Rare casbane diterpenoids from the Hainan soft coral Sinularia depressa” (J Nat Prod, 2010) are described below.

For assay [1], the system named is Escherichia coli. Put plainly: Antibacterial activity against Escherichia coli by broth macrodilution method. The format is functional, organism-based.
The subject of assay [2] is HepG2. The experiment in a line: Cytotoxicity against human HepG2 cells after 72 hrs by MTT assay. The format is functional, cell-based. The note with it: HepG2, 72 h.
Assay [3] concerns SW1990. The experiment in a line: Cytotoxicity against human SW1990 cells after 72 hrs by MTT assay. The format is functional, cell-based. The settings on record: SW1990, 72 h.
For assay [4], the system named is Staphylococcus aureus. The experiment in a line: Antibacterial activity against Staphylococcus aureus by broth macrodilution method. The format is functional, organism-based.

pIC50: −log10 of the molar value.

On to `C/C1=C\[C@@H](O)C/C(C)=C/CC(=O)/C(C)=C/[C@@H]2[C@H](CC1)C2(C)C`, for which the pIC50 in assay [1] is 4.77; in assay [2] it was 4.21; in assay [3], 4.43; in assay [4] it was 4.77.
